These results are taken from ChEMBL document CHEMBL4823292, “Design, synthesis, and functional evaluation of triazine-based bivalent agents that simultaneously target the active site and hot spot of phosphatase Cdc25B” (Bioorg Med Chem Lett, 2021).

Active and inactive are the calls of the source. No cut-off for these calls is given here.

For assay [1], the target named is T1, M-phase inducer phosphatase 2 (Homo sapiens) (UniProt P30305).
T1 sequence (whole entry): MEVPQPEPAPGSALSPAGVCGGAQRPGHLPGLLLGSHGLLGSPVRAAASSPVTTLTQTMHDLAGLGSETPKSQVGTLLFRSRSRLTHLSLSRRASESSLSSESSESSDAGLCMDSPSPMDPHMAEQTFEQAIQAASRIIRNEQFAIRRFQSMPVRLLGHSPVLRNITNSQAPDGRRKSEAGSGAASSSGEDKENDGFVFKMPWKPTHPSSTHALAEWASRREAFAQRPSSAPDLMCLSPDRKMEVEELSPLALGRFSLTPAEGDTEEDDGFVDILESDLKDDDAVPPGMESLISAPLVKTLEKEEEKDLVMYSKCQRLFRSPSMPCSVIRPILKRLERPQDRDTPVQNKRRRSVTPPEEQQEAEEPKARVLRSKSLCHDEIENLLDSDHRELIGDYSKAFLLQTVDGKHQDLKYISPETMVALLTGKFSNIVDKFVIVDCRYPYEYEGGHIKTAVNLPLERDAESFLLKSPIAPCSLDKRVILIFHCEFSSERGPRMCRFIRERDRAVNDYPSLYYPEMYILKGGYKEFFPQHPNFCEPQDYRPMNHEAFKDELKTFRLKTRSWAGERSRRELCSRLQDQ
Put plainly: Inhibition of recombinant human Cdc25B ([…] residues) using O-methylfluorescein phosphate as substrate at 1 to 30 uM by fluorescence assay. The following applies: dose 1-30 µM.

In assay [2] the target is T1, M-phase inducer phosphatase 2 (Homo sapiens). Nature of the assay: Inhibition of recombinant human Cdc25B ([…] residues) using O-methylfluorescein phosphate as substrate at 1 to 500 uM by fluorescence assay. The following applies: dose 1-500 µM.
Assay [3] concerns the target T2, M-phase inducer phosphatase 1 (Homo sapiens) (UniProt P30304).
T2 sequence (whole entry): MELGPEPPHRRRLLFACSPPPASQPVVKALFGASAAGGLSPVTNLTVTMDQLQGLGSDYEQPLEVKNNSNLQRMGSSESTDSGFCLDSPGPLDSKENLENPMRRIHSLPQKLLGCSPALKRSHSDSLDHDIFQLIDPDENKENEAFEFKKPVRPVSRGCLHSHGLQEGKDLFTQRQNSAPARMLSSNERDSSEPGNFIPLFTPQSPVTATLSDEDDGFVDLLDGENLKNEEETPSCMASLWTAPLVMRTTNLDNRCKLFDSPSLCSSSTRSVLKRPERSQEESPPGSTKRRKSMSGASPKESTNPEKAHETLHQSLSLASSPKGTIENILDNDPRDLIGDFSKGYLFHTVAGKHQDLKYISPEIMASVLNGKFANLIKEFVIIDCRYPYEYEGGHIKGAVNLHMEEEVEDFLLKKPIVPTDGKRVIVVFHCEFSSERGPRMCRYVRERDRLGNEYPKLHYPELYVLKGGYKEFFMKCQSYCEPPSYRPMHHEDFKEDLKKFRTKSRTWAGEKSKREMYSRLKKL
Put plainly: Inhibition of Cdc25A (unknown origin) at 1 to 500 uM by fluorescence assay. The following applies: dose 1-500 µM.

Assay [4] has as its target T3, M-phase inducer phosphatase 2 (Homo sapiens, UniProt P30305).
T3 sequence (P30305 whole entry): T1 sequence (whole entry)
Put plainly: Competitive inhibition of recombinant human Cdc25B ([…] residues) assessed as hydrolysis of substrate O-methylfluorescein phosphate by Lineweaver-Burk plot analysis.

The target in assay [5] is T1, M-phase inducer phosphatase 2 (Homo sapiens). Put plainly: Inhibition of recombinant human Cdc25B ([…] residues) using O-methylfluorescein phosphate as substrate at 30 uM by fluorescence assay.
Assay [6] deals with T2, M-phase inducer phosphatase 1 (Homo sapiens). Nature of the assay: Inhibition of Cdc25A (unknown origin) at 1 to 30 uM. As to conditions: dose 1-30 µM.

As for `O=C(O)C[C@H](Nc1nc(O)nc(N[C@@H](Cc2ccc(O)cc2)C(=O)O)n1)C(=O)O`, the inhibition result in assay [1] is “inactive”.
For `C[C@H](Nc1nc(NCCCCCNC(=O)CCCNc2nc(N[C@@H](C)C(=O)O)nc(N[C@@H](C)C(=O)O)n2)nc(N[C@@H](C)C(=O)O)n1)C(=O)O`, in assay [2], the “inhibition (active/inactive)” value was “Active”. Also, in assay [3], the inhibition result was “Active”.
As for `CC(C)C[C@H](Nc1nc(NCCCCCNC(=O)CCCNc2nc(N[C@@H](CC(=O)O)C(=O)O)nc(N[C@@H](Cc3ccc(O)cc3)C(=O)O)n2)nc(N[C@@H](C)C(=O)O)n1)C(=O)O`, the “inhibition (active/inactive)” value in assay [2] is “Active”. Further, in assay [3], the inhibition entry is “inactive”.
As to `O=C(O)C[C@H](Nc1nc(O)nc(N[C@@H](Cc2c[nH]c3ccccc23)C(=O)O)n1)C(=O)O`, in assay [1], the inhibition entry was “inactive”.
In the case of `O=C(O)C[C@H](Nc1nc(NCCCC(=O)NCCCCCNc2nc(N[C@@H](CC(=O)O)C(=O)O)nc(N[C@@H](Cc3c[nH]c4ccccc34)C(=O)O)n2)nc(N[C@@H](Cc2ccc(O)cc2)C(=O)O)n1)C(=O)O`, in assay [4], the Ki was found to be 2600 nM. Besides, the inhibition in assay [5] is 43%. Also, the “inhibition (active/inactive)” value in assay [2] was “Active”. Besides, the inhibition entry in assay [3] was “inactive”.
As to `O=C(O)C[C@H](Nc1nc(NCCCCCCCCCCNc2nc(N[C@@H](CC(=O)O)C(=O)O)nc(N[C@@H](Cc3c[nH]c4ccccc34)C(=O)O)n2)nc(N[C@@H](Cc2ccc(O)cc2)C(=O)O)n1)C(=O)O`, the inhibition in assay [5] is 1.5%. In addition, the inhibition entry in assay [6] is “Active”.
Turning to `C[C@H](Nc1nc(NCCCCCNC(=O)CCCNc2nc(N[C@@H](CC(=O)O)C(=O)O)nc(N[C@@H](Cc3ccc(O)cc3)C(=O)O)n2)nc(N[C@@H](C)C(=O)O)n1)C(=O)O`, in assay [2], the “inhibition (active/inactive)” value was “Active”.
For the compound `COC(=O)[C@H](CCCCN)Nc1nc(NCCCCCNC(=O)CCCNc2nc(N[C@@H](CCCCN)C(=O)OC)nc(N[C@@H](CCCCN)C(=O)OC)n2)nc(N[C@@H](CCCCN)C(=O)OC)n1`, the “inhibition (active/inactive)” value in assay [2] is “Active”.

By inhibition is commonly meant the percentage by which the read-out fell short of the control. The term Ki denotes the equilibrium dissociation constant of an inhibitor or competing ligand from its target.
